Assays:
[1] = test system: circulating CD34+CXCR4+ fibrocytes; assay: Phase 2 TAO trial: MHC II and B7 proteins in circulating fibrocytes (flow cytometry); format: in vivo, human; conditions: TAO patients, 20 mg/Kg, 24-week treatment
Protocol: (§1) Studies of circulating CD34^+ fibrocytes and T cells PBMCs from patients with active, moderate to severe TAO enrolled in a phase 2 trial for teprotumumab were cryopreserved immediately after collection. Venous blood sampling occurred at baseline and at week 24, following 8 infusions at 3 weekly intervals. The post-treatment sample was obtained 3 weeks after the final infusion of active drug or placebo. Samples were thawed and incubated with 10% knockout serum replacement medium for 1h and stained. Rinsed samples were subjected to FACS analysis with a Calibur flow cytometer (BD). Viable cells were gated on the basis of forward light scatter. All samples were analyzed using quadrant settings based on negative staining with isotype control antibodies. Mean fluorescent intensity (MFI) was calculated as the ratio of mean sample to isotype control fluorescence. Data were analyzed with FCS Express software (De Novo Software, Ontario, CA).

[2] = test system: circulating CD3+CD4+ T cells; assay: Phase 2 TAO trial: INFγ and IL-17A in circulating T cells (flow cytometry); format: in vivo, human; conditions: TAO patients, 20 mg/Kg, 24-week treatment
Protocol: as §1

GD-OF [3] = assay: icIL-1RA and sIL-1RA protein (ELISA); format: cell-based, human
Protocol: FIGS. 11A-11F are graphs showing teprotumumab attenuates bTSH induced IL-10 while enhancing icIL-1RA and sIL-1RA expression in fibrocytes and GD-OF. Fibrocyte cultures were treated with teprotumumab (50 μg/ml), rhSlit2 (50 ng/ml) or human Isotype IgG for 7-9 d, with bTSH (5 mIU/mL) for final 6 h. RNA was extracted and reverse transcribed. Isolated cDNA was subjected to quantitative real-time PCR for IL-10 (FIGS. 11A and 11B), icIL-1RA (FIGS. 11C and 11D). Media and cellular proteins were collected and subjected to specific ELISAs for icIL-1RA and sIL-1RA (FIGS. 11E, 11F, 11G, and 11H). PCR values were normalized to their respective GAPDH levels. icIL-1RA and sIL-1RA protein levels were normalized to cellular protein levels. Data are expressed as the mean±SD of three independent determinations. Experiments were repeated three times. **, p<0.01; ***. P<0.001.

fibrocytes and GD-OF = assay: BAFF expression and induction by bTSH; format: cell-based, human; conditions: teprotumumab 50 μg/ml or rhSlit2 50 ng/ml
Protocol: FIGS. 12A-12F are graphs showing the effect of bTSH, teprotumumab, and Slit2 on B-cell activating factor (BAFF) expression in fibrocytes and GD-OF. In FIGS. 12A and 12B, cultures were treated for the graded intervals indicated along the abscissas with bTSH (5 mIU/mL). Cellular RNA was harvested and subjected to reverse transcription by RT-PCR (FIG. 12A). Values were normalized to their respective GAPDH levels Medium was assayed for BAFF levels with an ELISA (FIG. 12B). Values were normalized to respective monolayer protein content. Data are expressed as mean f SD of triplicate determinations; *, p<0.05; **, p<0.01; ***, p<0.001. In FIGS. 12C-12F, bTSH, teprotumumab (50 μg/ml) or recombinant human Slit2 (rhSlit2) (50 ng/ml) were added to culture media for the times indicated and analyzed for BAFF mRNA levels as in FIG. 12A. In FIGS. 12F, parental GD-OF strains were sorted into pure CD34^+ and CD34^− subsets. Subsets were then cultured for 48 h, the final 6 h in the absence or presence of bTSH. Data were expressed as mean f SD of triplicate independent determinations from a single experiment representative of three conducted. *, p<0.05; **, p<0.01
IL-12, IL-23, IL-10, HA and BAFF ELISAs. Confluent cultures were treated with nothing or teprotumumab (50 μg/mL) for 5 d, without or with bTSH (5 mU/mL) for the intervals indicated or 72 h. […]

GD-OF [4] = assay: Hyaluronan (HA) production, ELISA; format: cell-based, human; conditions: 50 μg/ml, over 96 h
Protocol: (§2) FIGS. 13A-13B are graphs showing the effect of teprotumumab on bTSH induced hyaluronan (HA) production in GD-OF (FIG. 13A) and fibrocytes (FIG. 13B). GD-OF were treated with or without teprotumumab (50 μg/ml) or human Isotype IgG (5 μg/ml) for 7-9 d and stimulated with bTSH (5 mIU/mL) for graded intervals indicated along the abscissa for 0 to 96h. Media were collected and subjected to HA ELISA. Values were normalized to respective cell layer protein levels and expressed as the mean±SD of three independent determinations. Experiments were repeated three times. FIGS. 13C-13F are graphs showing the divergent pattern of hyaluronan synthase (HAS) isoenzyme induction by bTSH in fibrocytes versus GD-OF and effects of teprotumumab (FIGS. 13C and 13D) and linsitinib (FIGS. 13E and 13F). Confluent monolayers of GD-OF and fibrocytes remained untreated or received teprotumumab (50 μg/ml) or linsitinib (1 μM) and human Isotype IgG for 7-9 d. Some cultures were treated with bTSH (5 mIU/mL) for 6h. Cellular RNA was harvested mRNA was reverse transcribed, and cDNA subjected to quantitative real-time PCR for HAS1 and HAS2. Values were normalized to their respective GAPDH levels and are expressed as the mean±SD of three independent determinations. Experiments were repeated three times. *, P<0.05; **, p<0.01; ***. P<0.001.
IL-12, IL-23, IL-10, HA and BAFF ELISAs. […]

GD-OF [5] = assay: HAS1 and HAS2 mRNA, real-time PCR; format: cell-based, human; conditions: teprotumumab 50 μg/ml or linsitinib 1 μM, 7-9 d
Protocol: as §2
(§3) Real-time PCR Confluent fibrocyte and GD-OF cultures were incubated with bTSH (5 mIU/mL), teprotumumab (50 μg/mL) or linsitinib (1 μM) for the time intervals indicated, washed with PBS and RNA was extracted with the Aurum Total RNA Mini Kit (cat. #732-6820, Bio-Rad, Hercules, CA). Cellular RNA (2 μg) was reverse transcribed using QuantiTect Reverse Transcription kit (cat. #205314, Qiagen (Germantown, MD) and real-time PCR was performed using an Applied Biosystems instrument with QuantiTect SYBR Green PCR kit (cat. no. 204143; Qiagen, Frederick, MD). Primer sequences were as follows.

fibrocytes = assay: HAS1 and HAS2 mRNA, real-time PCR; format: cell-based, human; conditions: teprotumumab 50 μg/ml or linsitinib 1 μM, 7-9 d
Protocol: as §2, §3

teprotumumab was tested, and the “reduction of CD80 expression level compared to baseline” value [1] was 54%, the “reduction of CD86 expression level compared to baseline” value [1] was 47% and the “reduction of MHC-II expression level compared to baseline” value [1] was 40%. The “reduction of PD-L1 expression level compared to baseline” value [1] was 47%, the “reduction of IL-17A expression level in CD4+ T cells” value [2] was 47% and the “reduction of INFγ expression level in CD4+ T cells” value [2] was 41%. The icIL-1RA protein levels (GD-OF [3]) was “upregulated”, the sIL-1RA protein levels (GD-OF [3]) was “upregulated” and the “bTSH induction of BAFF” value (fibrocytes and GD-OF) was “attenuated”. The “effects of bTSH on HA synthesis” value (GD-OF [4]) was “enhanced”, the “HAS2 expression, single agent or in combination with bTSH” value (GD-OF [5]) was “induced” and the “basal and bTSH-provoked expression of HAS1” value (GD-OF [5]) was “inhibited”. The “HAS2 expression, single agent or in combination with bTSH” value (fibrocytes) was “induced” and the “basal and bTSH-provoked expression of HAS1” value (fibrocytes) was “inhibited”.
